Laboratory results as given in ChEMBL document CHEMBL1201862, “PubChem BioAssay data set” (2004).
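A five-concentration, 48-hour dose response in 96-well plates underlies each endpoint, interpolated linearly between surrounding concentrations. GI50 is the concentration that inhibits growth by half.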 Activity calls are given as the source filed them. Cut-off read from the data, not from the text of the source: active = GI50 up to about 1.1 µM and inactive = higher.

How the values were obtained:
Experiment in all cases: NCI-60 cell line screen, 48 h
M14 = test system: M14
UO-31 = test system: UO-31
SR = test system: SR
SK-MEL-28 = test system: SK-MEL-28
EKVX = test system: EKVX
LOX IMVI = test system: LOX IMVI
BT-549 = test system: BT-549
SNB-19 = test system: SNB-19
SK-MEL-2 = test system: SK-MEL-2
HOP-92 = test system: HOP-92
TK-10 = test system: TK-10
IGROV-1 = test system: IGROV-1
786-0 = test system: 786-0
SW-620 = test system: SW-620
PC-3 = test system: PC-3
MDA-N = test system: MDA-N
NCI-H23 = test system: NCI-H23
CAKI-1 = test system: CAKI-1
MCF7 = test system: MCF7

Measured: GI50

O=C(O)c1ccccc1C1c2ccccc2Oc2ccccc21
inactive: M14 > 100 µM | UO-31 65.8 µM | SR 41.9 µM | SK-MEL-28 > 100 µM | EKVX 49.2 µM | LOX IMVI 98.4 µM | BT-549 72.3 µM | SNB-19 85.7 µM | SK-MEL-2 23.4 µM | HOP-92 19.1 µM | TK-10 > 100 µM | IGROV-1 76 µM | 786-0 49.5 µM | SW-620 > 100 µM | PC-3 65.9 µM | MDA-N 58.6 µM | NCI-H23 39.7 µM | CAKI-1 34.1 µM

COc1nc2c(OC)cccc2c(OC)c1C=O
inactive: M14 > 100 µM | UO-31 > 100 µM | SK-MEL-28 > 100 µM | EKVX > 100 µM | LOX IMVI > 100 µM | SNB-19 > 100 µM | SK-MEL-2 > 100 µM | TK-10 > 100 µM | IGROV-1 > 100 µM | 786-0 > 100 µM | SW-620 96.4 µM | NCI-H23 > 100 µM

CC1OC(OC2C(OC(=O)[C@]34CCC(C)(C)C[C@H]3C3=CC[C@@H]5[C@@]6(C)CC[C@H](OC7OC(C(=O)O)C(O)C(O)C7O)C(C)(C)[C@@H]6CC[C@@]5(C)[C@]3(C)C[C@H]4O)OCC(O)C2O)C(O)C(O)C1OC1OCC(OC2OCC(O)C(O)C2O)C(O)C1O (stereo not given in full)
inactive: M14 3.52 µM | UO-31 2.13 µM | SR 7.23 µM | SK-MEL-28 3.44 µM | EKVX 4.16 µM | LOX IMVI 11.9 µM | BT-549 3.28 µM | SNB-19 5.51 µM | SK-MEL-2 2.96 µM | HOP-92 6.01 µM | MCF7 5.07 µM | IGROV-1 12.8 µM | 786-0 11.1 µM | SW-620 10.9 µM | PC-3 6.46 µM | NCI-H23 2.14 µM | CAKI-1 9.73 µM

CC(=O)N1C(Nc2ccccc2)CCN1c1ccccc1 (stereo not given)
inactive: M14 > 10 µM | UO-31 4.45 µM | SR > 10 µM | SK-MEL-28 > 10 µM | EKVX > 10 µM | LOX IMVI > 10 µM | BT-549 > 10 µM | SNB-19 > 10 µM | SK-MEL-2 > 10 µM | HOP-92 > 10 µM | TK-10 > 10 µM | MCF7 > 10 µM | IGROV-1 > 10 µM | 786-0 > 10 µM | SW-620 5.64 µM | PC-3 4.01 µM | NCI-H23 > 10 µM | CAKI-1 8.73 µM

C=C[C@@]1(O)CCCC[C@@H]1CC(Sc1ccccc1)Sc1ccccc1
inactive: M14 19.4 µM | UO-31 17.2 µM | SR 37.1 µM | SK-MEL-28 25.4 µM | EKVX 15.3 µM | LOX IMVI 19.6 µM | SNB-19 18 µM | SK-MEL-2 16 µM | TK-10 15.7 µM | MCF7 16.7 µM | IGROV-1 14.9 µM | 786-0 22.2 µM | PC-3 14.3 µM | MDA-N 20.1 µM | NCI-H23 17.2 µM | CAKI-1 14.8 µM

CN(C)C(=S)/N=c1\ss/c(=N\C(=S)N(C)C)n1-c1cccc(Cl)c1
inactive: M14 > 100 µM | UO-31 > 100 µM | SR > 100 µM | SK-MEL-28 > 100 µM | EKVX > 100 µM | LOX IMVI > 100 µM | SNB-19 > 100 µM | SK-MEL-2 > 100 µM | TK-10 > 100 µM | IGROV-1 > 100 µM | 786-0 > 100 µM | SW-620 > 100 µM | NCI-H23 > 100 µM | CAKI-1 > 100 µM

Cn1c(=O)c2c(nc(NCCCCl)n2CC(=O)NCCCCl)n(C)c1=O
inactive: M14 > 100 µM | UO-31 > 100 µM | SK-MEL-28 > 100 µM | EKVX > 100 µM | LOX IMVI > 100 µM | BT-549 > 100 µM | SNB-19 > 100 µM | SK-MEL-2 > 100 µM | HOP-92 > 100 µM | TK-10 > 100 µM | IGROV-1 > 100 µM | 786-0 > 100 µM | SW-620 > 100 µM | PC-3 > 100 µM | MDA-N > 100 µM | NCI-H23 > 100 µM | CAKI-1 > 100 µM

Cn1c(SCc2ccc(F)cc2)nnc1C12CC3CC(CC(C3)C1)C2
inactive: M14 24.2 µM | UO-31 34.4 µM | SR 24.2 µM | SK-MEL-28 24.3 µM | EKVX 37.1 µM | LOX IMVI 22.2 µM | SNB-19 53.5 µM | SK-MEL-2 40.6 µM | HOP-92 25 µM | IGROV-1 12.7 µM | 786-0 35.8 µM | SW-620 58.7 µM | PC-3 28.8 µM | MDA-N 38.5 µM | NCI-H23 50.6 µM | CAKI-1 > 100 µM

CC(=O)OCC1OC(n2ncc(=O)[nH]c2=O)C(OC(C)=O)C1OC(C)=O (stereo not given)
inactive: M14 73.5 µM | SR 5.36 µM | SK-MEL-28 > 100 µM | LOX IMVI 6.3 µM | HOP-92 > 100 µM | TK-10 > 100 µM | MCF7 15.6 µM | IGROV-1 17.8 µM | 786-0 4.04 µM | SW-620 1.4 µM | PC-3 68.9 µM | MDA-N 32.3 µM | NCI-H23 68.5 µM | CAKI-1 9.4 µM

CC1CCC(O)(C(C)(C(=O)O)c2ccccc2)CC1 (stereo not given)
inactive: M14 49 µM | UO-31 > 100 µM | SK-MEL-28 > 100 µM | EKVX > 100 µM | LOX IMVI > 100 µM | BT-549 > 100 µM | SNB-19 48.3 µM | SK-MEL-2 > 100 µM | HOP-92 83.9 µM | TK-10 > 100 µM | IGROV-1 > 100 µM | 786-0 > 100 µM | SW-620 > 100 µM | PC-3 > 100 µM | MDA-N > 100 µM | NCI-H23 > 100 µM | CAKI-1 57.4 µM

COc1ccc(C2(O)C(S(=O)(=O)c3ccc(C)cc3)=Cc3ccc(OC)cc32)cc1 (stereo not given)
inactive: SR > 100 µM | SK-MEL-28 32.7 µM | EKVX 78.2 µM | LOX IMVI > 100 µM | SNB-19 43.7 µM | SK-MEL-2 43.2 µM | TK-10 46.5 µM | MCF7 35 µM | IGROV-1 > 100 µM | 786-0 41 µM | SW-620 > 100 µM | PC-3 53.8 µM | MDA-N > 100 µM | NCI-H23 > 100 µM

O=C(Nc1nccs1)NS(=O)(=O)n1cnc2ccccc21
inactive: M14 > 100 µM | UO-31 > 100 µM | SK-MEL-28 > 100 µM | EKVX > 100 µM | BT-549 > 100 µM | SNB-19 > 100 µM | SK-MEL-2 > 100 µM | HOP-92 > 100 µM | TK-10 > 100 µM | MCF7 > 100 µM | IGROV-1 > 100 µM | 786-0 > 100 µM | SW-620 > 100 µM | PC-3 > 100 µM | NCI-H23 > 100 µM | CAKI-1 > 100 µM

NC(=O)C(=CNC(=S)Nc1cccc(C(F)(F)F)c1)C(N)=O
inactive: M14 > 100 µM | UO-31 > 100 µM | SR > 100 µM | SK-MEL-28 > 100 µM | LOX IMVI > 100 µM | SNB-19 > 100 µM | SK-MEL-2 > 100 µM | HOP-92 > 100 µM | TK-10 > 100 µM | MCF7 > 100 µM | 786-0 > 100 µM | SW-620 > 100 µM | PC-3 > 100 µM | MDA-N > 100 µM | NCI-H23 > 100 µM | CAKI-1 28.4 µM

OCC1C(OCc2ccccc2)C(OCc2ccccc2)C(OCc2ccccc2)CN1Cc1ccccc1 (stereo not given)
inactive: M14 37.2 µM | UO-31 18.4 µM | SR 8.83 µM | SK-MEL-28 88.9 µM | EKVX 84.9 µM | LOX IMVI 31.3 µM | SNB-19 96.8 µM | HOP-92 9.64 µM | TK-10 42.8 µM | MCF7 14.2 µM | IGROV-1 35.5 µM | 786-0 26.3 µM | SW-620 53 µM | PC-3 13 µM | MDA-N 35.4 µM | NCI-H23 15.4 µM | CAKI-1 > 100 µM

C/N=C(\S)N/N=C/C(C)=N/N/C(S)=N/C
inactive: M14 > 100 µM | UO-31 > 100 µM | SK-MEL-28 > 100 µM | EKVX > 100 µM | LOX IMVI > 100 µM | SNB-19 > 100 µM | SK-MEL-2 > 100 µM | TK-10 > 100 µM | 786-0 > 100 µM | SW-620 > 100 µM | NCI-H23 > 100 µM

CCc1cccc2c3c([nH]c12)-c1ccccc1NC(=O)C3
inactive: M14 > 100 µM | UO-31 > 100 µM | SK-MEL-28 > 100 µM | EKVX > 100 µM | LOX IMVI 72.9 µM | BT-549 > 100 µM | SNB-19 > 100 µM | SK-MEL-2 > 100 µM | HOP-92 > 100 µM | TK-10 > 100 µM | MCF7 18.3 µM | IGROV-1 > 100 µM | 786-0 > 100 µM | SW-620 > 100 µM | NCI-H23 > 100 µM | CAKI-1 43.6 µM

Cc1ccc2c(O)cc(-c3ccc4ccccc4c3)nc2n1
inactive: M14 8.89 µM | UO-31 8 µM | SR 1.83 µM | SK-MEL-28 5.9 µM | EKVX 5.96 µM | LOX IMVI 5.14 µM | BT-549 27.4 µM | SNB-19 9.48 µM | SK-MEL-2 5.97 µM | HOP-92 1.5 µM | TK-10 8.45 µM | MCF7 2.28 µM | IGROV-1 2.6 µM | 786-0 3.94 µM | SW-620 2.8 µM | NCI-H23 4.41 µM
